Tested on: acne
Assay: Test on patients suffering from acne
Type: in vivo, human

For CCCCCCCCCCCCCC[C@@H](O)[C@@H](O)[C@@H](N)CO [phytosphingosine], the therapeutic efficacy was “good therapeutic efficacy”.

From patent US6372236B1, “Cream composition for skin care” (Doosan Corporation, priority 2000, dated 2002)
